We go through 29 compounds from patent US8507559B2, “Cyclohexenyl modulators of chemokine receptor activity” (Bristol-Myers Squibb Company, priority 2008, dated 2013).

In the assay the target is T1, CCR2 (Homo sapiens, UniProt P41597).
T1 construct: THP-1 human monocytic leukemic cell line, which expresses endogenous CCR2; endogenous in cells; host or cells: human peripheral blood mononuclear cells, human monocytes or THP-1 cells
T1 sequence (P41597 1-360 isoform P41597-2): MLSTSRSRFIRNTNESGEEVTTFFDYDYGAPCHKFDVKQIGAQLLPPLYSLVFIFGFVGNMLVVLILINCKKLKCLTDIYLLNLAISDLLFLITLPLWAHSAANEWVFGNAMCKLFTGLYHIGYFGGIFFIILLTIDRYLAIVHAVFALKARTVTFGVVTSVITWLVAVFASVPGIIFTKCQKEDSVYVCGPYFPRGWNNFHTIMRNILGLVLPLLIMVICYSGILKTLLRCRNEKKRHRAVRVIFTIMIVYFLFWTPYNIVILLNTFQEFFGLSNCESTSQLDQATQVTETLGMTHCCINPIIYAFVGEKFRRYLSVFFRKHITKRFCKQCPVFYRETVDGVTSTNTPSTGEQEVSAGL
Kind of assay: CCR2 binding: antagonism of 125I-MCP-1 binding (human PBMC / THP-1 whole cell). The conditions noted are these: n = 1 unless otherwise noted. Here is the method: Antagonism of MCP-1 Binding to Human PBMC
Millipore filter plates (#MABVN1250) are treated with 100 μl of binding buffer (0.5% bovine serum albumin, 20 mM HEPES buffer and 5 mM magnesium chloride in RPMI 1640 media) for thirty minutes at room temperature. To measure binding, 50 μl of binding buffer, with or without a known concentration compound, is combined with 50 μl of ^125-I labeled human MCP-1 (to give a final concentration of 150 pM radioligand) and 50 μl of binding buffer containing 5×10^5 cells. Cells used for such binding assays can include human peripheral blood mononuclear cells isolated by Ficoll-Hypaque gradient centrifugation, human monocytes (Weiner et al., J. Immunol. Methods. 1980, 36, 89), or the THP-1 cell line which expresses the endogenous receptor. The mixture of compound, cells and radioligand are incubated at room temperature for thirty minutes. Plates are placed onto a vacuum manifold, vacuum applied, and the plates washed three times with binding buffer containing 0.5M NaCl. The plastic skirt is removed from the plate, the plate allowed to air dry, the wells punched out and counted. The percent inhibition of binding is calculated using the total counts obtained in the absence of any competing compound and the background binding determined by addition of 100 nM MCP-1 in place of the test compound.
THP-1 Monocytic Cell Binding: Whole Cell-based Assay
The human CCR2 binding assay was also established with the THP-1 human monocytic leukemic cell line, which expresses endogenous CCR2, using ^125I-human MCP-1 as the tracer ligand. Radioligand competition binding assays were used for assessment of binding affinity of test compounds to the CCR2 receptor. For radioligand competition studies, 100 μl containing 2.5×10^5 THP-1 cells/well (in assay buffer containing 50 mM HEPES, pH7.4, 5 mM MgCl2, 1 mM CaCl2 and 0.5% BSA) were added to 96-well assay plates containing the test compounds in 3-fold serial dilution, with final concentrations ranging from 5 μM to 100 pM. Subsequently, 50 μl ^125I-MCP-1 radioligand at a final concentration of 0.2 nM in assay buffer were added to the reaction. After a 90 minute incubation period at room temperature, the binding reaction was terminated by harvesting on GF/B filter plates (PerkinElmer Cat. No. 6005177) followed by washing with ice-cold wash buffer (50 mM HEPES, pH 7.4, 0.1% BSA, 0.5 M NaCl) to remove unbound ligand. After washing, the plate was dried for 45 minutes at 60° C. followed by addition of 40 μl MicroScint 20 scintillation fluid, sealed and analyzed by the Packard TopCount reader. Non-specific binding was determined in the presence of 10 μM (a molar excess of 5000 fold) of an in-house CCR2 small molecule antagonist (CCR2 IC50=2 nM). Specific binding of ^125I-MCP-1 was calculated as the difference between total and non-specific binding. The competition data was plotted as a percentage inhibition of radioligand specific bound in the absence of test compound (percent of total signal). After correcting for non-specific binding, IC50 values were determined. The IC50 is defined as the concentration of test compound required to reduce ^125I-MCP-1 specific binding by 50% and was calculated using the four parameter logistic equation to fit the normalized data.
The term Ki denotes a measure of affinity in units of concentration, obtained from inhibition or displacement. With `CC1(c2ccc(Cl)c(Cl)c2)CCCC=C1C(=O)O` (racemic) [Example 1-01, 6-(3,4-dichlorophenyl)-6-methylcyclohex-1-enecarboxylic acid], the Ki stood at 440 nM.
The result for `CC1(c2ccc(Cl)cc2)CCCC=C1C(=O)O` (racemic) [Example 1-02, 6-(4-chlorophenyl)-6-methylcyclohex-1-enecarboxylic acid] reads 3400 nM; that for `C[C@@H]1CC=C(C(=O)O)[C@@](C)(c2cccc(-c3ccccc3)c2)C1` (racemic) [Example 1-03, (4RS,6RS)-6-(3-phenylphenyl)-4,6-dimethylcyclohex-1-enecarboxylic acid], 250 nM; that for `Cc1ccc([C@@]2(C)C[C@H](C)CC=C2C(=O)O)cc1Cl` (racemic) [Example 1-04, (4RS,6RS)-6-(3-chloro-4-methylphenyl)-4,6-dimethylcyclohex-1-enecarboxylic acid], 69 nM.
`C[C@@H]1CC=C(C(=O)O)[C@@](C)(c2ccc(F)c(F)c2)C1` (racemic) [Example 1-05, (4RS,6RS)-6-(3,4-difluorophenyl)-4,6-dimethylcyclohex-1-enecarboxylic acid]: the inhibition constant (Ki) was determined as 3500 nM. Compared with the last compound, the Ki is about 51-fold higher.
As for `C[C@]1(c2ccc(Cl)c(Cl)c2)C[C@H](c2ccccc2)CC=C1C(=O)O` (racemic) [Example 1-06, (4RS,6RS)-6-(3,4-dichlorophenyl)-6-methyl-4-phenylcyclohex-1-enecarboxylic acid], the Ki came to 3900 nM.
The result for `Cc1ccc(C2(C)CCCC=C2C(=O)O)cc1C` (racemic) [Example 1-08, 6-(3,4-dimethylphenyl)-6-methylcyclohex-1-enecarboxylic acid] reads 8200 nM; that for `CC1(c2cccc(Cl)c2)CCCC=C1C(=O)O` (racemic) [Example 1-09, 6-(3-chlorophenyl)-6-methylcyclohex-1-enecarboxylic acid], 3000 nM; that for `CC1(c2cccc(C(F)(F)F)c2)CCCC=C1C(=O)O` (racemic) [Example 1-10, 6-methyl-6-(3-(trifluoromethyl)-phenyl)cyclohex-1-enecarboxylic acid], 1600 nM.
Then `C[C@@H]1CC=C(C(=O)O)[C@@](C)(c2ccc(Cl)c(Cl)c2)C1` (racemic) [Example 1-11, (4RS,6RS)-6-(3,4-dichlorophenyl)-4,6-dimethylcyclohex-1-enecarboxylic acid], with 80 nM; and `C[C@@H]1CC=C(C(=O)O)[C@@](C)(c2cccc(C(F)(F)F)c2)C1` (racemic) [Example 1-12, (4RS,6RS)-4,6-dimethyl-6-(3-(trifluoromethyl)phenyl)cyclohex-1-enecarboxylic acid], with 280 nM.
Then `C[C@@H]1CC=C(C(=O)O)[C@@](C)(c2ccc(Cl)c(C(F)(F)F)c2)C1` (racemic) [Example 1-13, (4RS,6RS)-6-(4-chloro-3-(trifluoromethyl)-phenyl)-4,6-dimethylcyclohex-1-enecarboxylic acid], with 11 nM; and `C[C@@H]1CC=C(C(=O)O)[C@@](C)(c2cc(C(F)(F)F)cc(C(F)(F)F)c2)C1` (racemic) [Example 1-14, (4RS,6RS)-6-(3,5-bis(trifluoromethyl)-phenyl)-4,6-dimethylcyclohex-1-enecarboxylic acid], with 740 nM.
`Cc1ccc([C@@]2(C)C[C@H](C)CC=C2C(=O)O)cc1C` (racemic) [Example 1-15, (4RS,6RS)-6-(3,4-dimethylphenyl)-4,6-dimethylcyclohex-1-enecarboxylic acid] registered a Ki of 330 nM. Against the preceding compound, the Ki is about 2.2-fold lower.
`C[C@@H]1CC=C(C(=O)O)[C@@](C)(c2cccc3ccccc23)C1` (racemic) [Example 1-16, (4RS,6RS)-4,6-dimethyl-6-(napthalen-1-yl)cyclohex-1-enecarboxylic acid] came in with an inhibition constant (Ki) of 140 nM.
The compound `Cc1ccc([C@@]2(C)C[C@H](C)CC=C2C(=O)O)cc1` (racemic) [Example 1-17, (4RS,6RS)-4,6-dimethyl-6-p-tolylcyclohex-1-enecarboxylic acid] yielded a Ki of 2600 nM.
The result for `Cc1cccc([C@@]2(C)C[C@H](C)CC=C2C(=O)O)c1` (racemic) [Example 1-18, (4RS,6RS)-4,6-dimethyl-6-m-tolylcyclohex-1-enecarboxylic acid] reads 930 nM.
The result for `Cc1cccc([C@@]2(C)C[C@H](C)CC=C2C(=O)O)c1C` (racemic) [Example 1-19, (4RS,6RS)-6-(2,3-dimethylphenyl)-4,6-dimethylcyclohex-1-enecarboxylic acid] reads 3700 nM.
Then `C[C@@H]1CC=C(C(=O)O)[C@@](C)(c2ccc3ccccc3c2)C1` (racemic) [Example 1-20, (4RS,6RS)-4,6-dimethyl-6-(naphthalen-2-yl)cyclohex-1-enecarboxylic acid], with 320 nM; and `C[C@@H]1CC=C(C(=O)O)[C@@](C)(c2ccc(Cl)cc2)C1` (racemic) [Example 1-21, (4RS,6RS)-6-(4-chlorophenyl)-4,6-dimethylcyclohex-1-enecarboxylic acid], with 900 nM.
As to `C[C@@H]1CC=C(C(=O)O)[C@@](C)(c2ccc(F)cc2)C1` (racemic) [Example 1-22, (4RS,6RS)-6-(4-fluorophenyl)-4,6-dimethylcyclohex-1-enecarboxylic acid], affinity was put at a Ki of 480 nM.
The result for `C[C@@H]1CC=C(C(=O)O)[C@@](C)(c2cccc(F)c2)C1` (racemic) [Example 1-23, (4RS,6RS)-6-(3-fluorophenyl)-4,6-dimethylcyclohex-1-enecarboxylic acid] reads 3700 nM.
Then `C[C@@H]1CC=C(C(=O)O)[C@@](C)(c2ccccc2)C1` (racemic) [Example 1-24, (4RS,6RS)-4,6-dimethyl-6-phenylcyclohex-1-enecarboxylic acid], with 1000 nM; and `Cc1cc([C@@]2(C)C[C@H](C)CC=C2C(=O)O)ccc1F` (racemic) [Example 1-25, (4RS,6RS)-6-(4-fluoro-3-methylphenyl)-4,6-dimethylcyclohex-1-enecarboxylic acid], with 1100 nM.
Then `Cc1ccc(C)c([C@@]2(C)C[C@H](C)CC=C2C(=O)O)c1` (racemic) [Example 1-26, (4RS,6RS)-6-(2,5-dimethylphenyl)-4,6-dimethylcyclohex-1-enecarboxylic acid], with 550 nM.
Regarding `Cc1cc([C@@]2(C)C[C@H](C)CC=C2C(=O)O)cc(C)c1Cl` (racemic) [Example 1-27, (4RS,6RS)-6-(4-chloro-3,5-dimethylphenyl)-4,6-dimethylcyclohex-1-enecarboxylic acid], the Ki was determined as 130 nM.
The result for `Cc1ccc([C@@]2(C)C[C@H](C)CC=C2C(=O)O)c2ccccc12` (racemic) [Example 1-28, (4RS,6RS)-4,6-dimethyl-6-(4-methyl-naphthalen-1-yl)cyclohex-1-enecarboxylic acid] reads 250 nM; that for `Cc1cc(C)cc([C@@]2(C)C[C@H](C)CC=C2C(=O)O)c1` (racemic) [Example 1-29, (4RS,6RS)-6-(3,5-dimethylphenyl)-4,6-dimethylcyclohex-1-enecarboxylic acid], 300 nM.
Then `C[C@@H]1CC=C(C(=O)O)[C@@](C)(c2cc(Cl)cc(Cl)c2)C1` (racemic) [Example 1-30, (4RS,6RS)-6-(3,5-dichlorophenyl)-4,6-dimethylcyclohex-1-enecarboxylic acid], with 110 nM.
